This passage reports Ki results from patent publication US7741362B2, “Somatostatin receptor 1 and/or 4 selective agonists and antagonists” (Siegfried Wurster, priority 2003, dated 2010).

Like-named read-outs stand apart in the source and are kept apart here.

Experiment [1] concerns the target T1, human somatostatin receptor subtype SSTR4 (Homo sapiens, UniProt P31391).
T1 construct: expressed in transfected cells; host or cells: CHO cells (membranes)
The experiment can be described thus: Competition binding with 125I-LTT-sst-28, human somatostatin receptor subtype SSTR4. The method, then:
(§1) The affinity of the compounds of the invention for the five human somatostatin receptor subtypes (SSTR1, SSTR2, SSTR3, SSTR4, and SSTR5) was determined in competition binding assays with (^125I-Tyr)-[Leu^8,DTrp^22]-somatostatin-28 (^125I-LTT-sst-28). The biological material for these experiments consisted of membranes from Chinese hamster ovary (CHO) cells stably transfected with one of the five human somatostatin receptor subtypes. Membranes (3-20 μg of total protein per sample) and trace amount of ^125I-LTT-sst-28 were incubated in 10 mM Hepes, 1 mM EDTA, 5 mM MgCl2, 5 mg/ml of BSA and 30 μg/ml bacitracin, pH 7.6 with six concentrations of the compounds. Each concentration was run in duplicate. Nonspecific binding was defined by 1 μM somatostatin-14 (sst-14) and corresponded to 5-25% of total binding. After 60 min at room temperature, incubations were terminated by rapid vacuum filtration through GF/B glass fiber filter mats (presoaked at 4° C. in 200 ml of 10 mM Hepes, 1 mM EDTA, 5 mM MgCl2, pH 7.6) and three 5 ml washes with ice-cold wash buffer (20 mM TRIS, 1 mM EDTA, 5 mM MgCl2, pH 7.4). The filters were then dried, impregnated with scintillate and their radioactivity was measured by scintillation counting. The analysis of the experiments was carried out by nonlinear least square curve fitting. Affinity constants (Ki) were calculated from the IC50 values according to the Cheng-Prusoff's equation (Cheng and Prusoff, 1973). Experiments were repeated a minimum of three times.

In experiment [2] the target is T2, human somatostatin receptor subtype SSTR2 (Homo sapiens, UniProt P30874).
T2 construct: expressed in transfected cells; host or cells: CHO cells (membranes)
T2 sequence (P30874 whole entry): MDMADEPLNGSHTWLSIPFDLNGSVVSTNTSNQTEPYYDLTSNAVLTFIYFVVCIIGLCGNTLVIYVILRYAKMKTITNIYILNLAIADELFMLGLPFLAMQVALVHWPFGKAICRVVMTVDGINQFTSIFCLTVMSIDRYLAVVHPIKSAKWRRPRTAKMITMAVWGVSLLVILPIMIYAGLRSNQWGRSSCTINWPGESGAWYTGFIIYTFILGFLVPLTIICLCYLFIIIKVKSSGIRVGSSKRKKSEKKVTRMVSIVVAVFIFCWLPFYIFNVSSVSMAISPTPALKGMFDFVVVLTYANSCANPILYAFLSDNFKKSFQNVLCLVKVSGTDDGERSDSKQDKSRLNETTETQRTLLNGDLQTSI
In words: Competition binding with 125I-LTT-sst-28, human somatostatin receptor subtype SSTR2. Particulars: membranes from CHO cells stably transfected with human SSTR2, Cheng-Prusoff. The method, then:
as §1, with “The analysis of the experiments was carried out by nonlinear least square curve fitting.” left out, “Experiments were repeated a minimum of three times.” left out

Experiment [3] addresses T3, human somatostatin receptor subtype SSTR1 (Homo sapiens, UniProt P30872).
T3 construct: expressed in transfected cells; host or cells: CHO cells (membranes)
The experiment can be described thus: Competition binding with 125I-LTT-sst-28, human somatostatin receptor subtype SSTR1. The method, then: as §1

Experiment [4] deals with T4, human somatostatin receptor subtype SSTR5 (Homo sapiens, UniProt P35346).
T4 construct: expressed in transfected cells; host or cells: CHO cells (membranes)
T4 sequence (P35346 whole entry): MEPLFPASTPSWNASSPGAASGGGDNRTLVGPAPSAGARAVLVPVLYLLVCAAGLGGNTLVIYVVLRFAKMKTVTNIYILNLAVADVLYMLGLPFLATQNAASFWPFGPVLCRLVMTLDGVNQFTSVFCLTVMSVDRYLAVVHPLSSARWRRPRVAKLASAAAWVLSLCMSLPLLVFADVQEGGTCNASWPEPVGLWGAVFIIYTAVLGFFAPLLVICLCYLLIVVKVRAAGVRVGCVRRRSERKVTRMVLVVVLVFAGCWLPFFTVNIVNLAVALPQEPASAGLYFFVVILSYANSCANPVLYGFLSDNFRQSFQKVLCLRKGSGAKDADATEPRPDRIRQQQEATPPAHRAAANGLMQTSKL
The experiment can be described thus: Competition binding with 125I-LTT-sst-28, human somatostatin receptor subtype SSTR5. The settings on record: membranes from CHO cells stably transfected with human SSTR5, Cheng-Prusoff. The method, then:
as §1, with “The analysis of the experiments was carried out by nonlinear least square curve fitting.” left out, “Experiments were repeated a minimum of three times.” left out

In experiment [5] the target is T5, human somatostatin receptor subtype SSTR3 (Homo sapiens, UniProt P32745).
T5 construct: expressed in transfected cells; host or cells: CHO cells (membranes)
T5 sequence (P32745 whole entry): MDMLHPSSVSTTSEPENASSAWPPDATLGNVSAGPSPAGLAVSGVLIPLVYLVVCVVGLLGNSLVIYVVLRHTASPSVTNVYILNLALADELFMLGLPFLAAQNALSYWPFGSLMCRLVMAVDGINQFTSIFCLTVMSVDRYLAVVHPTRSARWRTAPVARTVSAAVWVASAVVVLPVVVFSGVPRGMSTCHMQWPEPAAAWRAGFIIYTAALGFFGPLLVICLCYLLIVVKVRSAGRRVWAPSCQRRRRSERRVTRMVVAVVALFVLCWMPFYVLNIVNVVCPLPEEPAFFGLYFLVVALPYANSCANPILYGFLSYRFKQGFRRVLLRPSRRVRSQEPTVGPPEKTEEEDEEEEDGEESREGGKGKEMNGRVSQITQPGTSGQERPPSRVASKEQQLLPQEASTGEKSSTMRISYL
In words: Competition binding with 125I-LTT-sst-28, human somatostatin receptor subtype SSTR3. The settings on record: membranes from CHO cells stably transfected with human SSTR3, Cheng-Prusoff. The method, then:
as §1, with “The analysis of the experiments was carried out by nonlinear least square curve fitting.” left out, “Experiments were repeated a minimum of three times.” left out

Setting [6] is: same protocol, less than 300 nM, read-out: Ki for SSTR4 (bound).
[7] abbreviates: membranes from CHO cells stably transfected with human SSTR4, 125I-LTT-sst-28, Cheng-Prusoff, read-out: Ki (SSTR4).
The mark [8] stands for this setting: same protocol, less than 300 nM, read-out: Ki for SSTR1 (bound).

T1 sequence (P31391 whole entry): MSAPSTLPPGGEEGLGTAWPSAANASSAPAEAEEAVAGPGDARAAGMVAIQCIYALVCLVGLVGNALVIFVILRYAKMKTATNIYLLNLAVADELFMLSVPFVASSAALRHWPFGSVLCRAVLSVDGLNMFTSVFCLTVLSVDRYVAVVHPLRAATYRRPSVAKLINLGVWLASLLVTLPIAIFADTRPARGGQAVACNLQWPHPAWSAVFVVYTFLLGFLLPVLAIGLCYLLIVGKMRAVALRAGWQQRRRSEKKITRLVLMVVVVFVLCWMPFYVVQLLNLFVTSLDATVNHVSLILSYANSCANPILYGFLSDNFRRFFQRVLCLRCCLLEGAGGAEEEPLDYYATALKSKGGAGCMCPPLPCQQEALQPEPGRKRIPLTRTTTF
T3 sequence (P30872 whole entry): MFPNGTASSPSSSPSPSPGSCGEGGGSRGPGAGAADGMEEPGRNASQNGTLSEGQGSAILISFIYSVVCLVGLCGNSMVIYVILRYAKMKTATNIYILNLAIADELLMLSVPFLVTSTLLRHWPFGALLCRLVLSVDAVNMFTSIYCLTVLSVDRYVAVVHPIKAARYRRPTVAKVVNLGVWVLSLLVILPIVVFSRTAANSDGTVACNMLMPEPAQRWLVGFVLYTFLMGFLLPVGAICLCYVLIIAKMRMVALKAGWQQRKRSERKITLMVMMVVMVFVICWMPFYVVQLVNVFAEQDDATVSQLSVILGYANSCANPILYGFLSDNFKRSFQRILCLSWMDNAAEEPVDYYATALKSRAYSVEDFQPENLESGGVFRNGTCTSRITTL

Consider `Cc1ccc(S(=O)(=O)N[C@@H](CCN)C(=O)NC2CCCCC2)c2ccccc12` [Compound 1, 4-amino-N-cyclohexyl-(S)-2-(N′-(4-methyl-1-naphthalenesulfonyl)amino)butanamide], for which, in experiment [1] (setting [6]), the Ki (as a rule, the dissociation constant of the complex between target and ligand, obtained from inhibition or displacement) is under 300 nM.
For the compound `Cc1ccc(S(=O)(=O)N[C@@H](CCN)C(=O)N[C@@H](Cc2ccccc2)C(N)=O)c2ccccc12` [Compound 2, 4-amino-N-(S)-1-carbamoyl-2-phenylethyl-(S)-2-(N′-(4-methyl-1-naphthalenesulfonyl)amino)butanamide], the Ki in experiment [2] is over 5000 nM; in experiment [1] (setting [7]) it was 1.2 ± 0.4 nM.
On to `Cc1ccc(S(=O)(=O)N[C@@H](CCNC(C)C)C(=O)NCc2ccccc2)c2ccccc12` [Compound 3, N-benzyl-4-(N′-isopropyl)amino-(S)-2-(N″-(4-methyl-1-naphthalenesulfonyl)amino)butanamide], for which the inhibitory constant (Ki) in experiment [1] (setting [6]) and in experiment [3] (setting [8]) was under 300 nM each time.
As to `Cc1ccc(S(=O)(=O)N[C@@H](CCNC(=N)N)C(=O)NCc2ccccc2)c2ccccc12` [Compound 4, N-benzyl-4-guanidino-(S)-2-(N′-(4-methyl-1-naphthalenesulfonyl)amino)butanamide], the Ki in experiment [1] (setting [6]) is under 300 nM.
Regarding `Cc1ccc(S(=O)(=O)N[C@@H](CCCNC(=N)N)C(=O)N[C@@H](Cc2ccccc2)C(N)=O)c2ccccc12` [Compound 5, N-((S)-1-carbamoyl-2-phenylethyl)-5-guanidino-(S)-2-(N′-(4-methyl-1-naphthalenesulfonyl)amino)pentanamide], the Ki in experiment [1] (setting [6]) and in experiment [3] (setting [8]) was under 300 nM in each case.
Regarding `Cc1ccc(S(=O)(=O)N[C@@H](CCCNC(=N)N)C(=O)N[C@H](C(N)=O)C(c2ccccc2)c2ccccc2)c2ccccc12` [Compound 6, N-((S)-1-carbamoyl-2,2-diphenylethyl)-5-guanidino-(S)-2-(N′-(4-methyl-1-naphthalenesulfonyl)amino)pentanamide], the inhibition constant Ki in experiment [1] (setting [6]) and in experiment [3] (setting [8]) was under 300 nM in each case.
On to `Cc1ccc(S(=O)(=O)N[C@@H](CCCN)C(=O)N[C@@H](Cc2ccccc2)C(N)=O)c2ccccc12` [Compound 7, 5-amino-N-((S)-1-carbamoyl-2-phenylethyl)-(S)-2-(N′-(4-methyl-1-naphthalenesulfonyl)amino)pentanamide], for which the inhibitory constant (Ki) in experiment [1] (setting [6]) and in experiment [3] (setting [8]) was under 300 nM throughout.
On to `CCc1ccc(S(=O)(=O)N[C@@H](CCN)C(=O)N[C@@H](Cc2ccccc2)C(N)=O)c2ccccc12` [Compound 8, 4-amino-N-((S)-1-carbamoyl-2-phenylethyl)-(S)-2-(N′-(4-ethyl-1-naphthalenesulfonyl)amino)butanamide], for which, in experiment [1] (setting [6]), the Ki is under 300 nM.
In the case of `Cc1ccc(S(=O)(=O)N[C@@H](CCN)C(=O)N[C@H](C(N)=O)C(c2ccccc2)c2ccccc2)c2ccccc12` [Compound 9, 4-amino-N-((S)-1-carbamoyl-2,2-diphenylethyl)-(S)-2-(N′-(4-methyl-1-naphthalenesulfonyl)amino)butanamide], the Ki in experiment [1] (setting [6]) was under 300 nM.
Regarding `NCC[C@H](NS(=O)(=O)c1cccc2ccccc12)C(=O)N[C@@H](Cc1ccccc1)C(N)=O` [Compound 10, 4-amino-N-((S)-1-carbamoyl-2-phenylethyl)-(S)-2-(N′-(1-naphthalenesulfonyl)amino)butanamide], in experiment [1] (setting [6]), the Ki is under 300 nM.
As to `Cc1ccc(S(=O)(=O)N[C@@H](CCNC2CCCCC2)C(=O)NCc2ccccc2)c2ccccc12` [Compound 11, N-benzyl-4-N′-cyclohexylamino-(S)-2-(N″-(4-methyl-1-naphthalenesulfonyl)amino)butanamide], in experiment [3] (setting [8]), the Ki was under 300 nM.
Take `CCCCOc1ccc(S(=O)(=O)NC(CCCNC(=N)N)C(=O)NC(Cc2ccccc2)C(N)=O)cc1` [Compound 12, (S)-2-N-(4-butoxybenzenesulfonyl)amino-N′-((S)-1-carbamoyl-2-phenylethyl)-5-guanidinopentanamide]: the Ki in experiment [3] (setting [8]) was under 300 nM.
For the compound `Cc1ccc(S(=O)(=O)N[C@@H](CCN)C(=O)N[C@H](C(N)=O)C(C)C)c2ccccc12` [Compound 13, 4-amino-N-((S)-1-carbamoyl-2-methylpropyl)-(S)-2-(N′-(4-methyl-1-naphthalenesulfonyl)amino)butanamide], the inhibitory constant (Ki) in experiment [1] (setting [6]) is under 300 nM.
As to `CCc1cc(Br)ccc1S(=O)(=O)NC(CCN)C(=O)NC(Cc1ccccc1)C(N)=O` [Compound 14, 4-amino-(S)-2-N-(4-bromo-2-ethylbenzenesulfonyl)-amino-N′-((S)-1-carbamoyl-2-phenylethyl)butanamide], the Ki in experiment [1] (setting [6]) is under 300 nM.
Consider `N=C(N)NCCC[C@H](NS(=O)(=O)c1ccc2ccccc2c1)C(=O)N[C@@H](Cc1ccccc1)C(N)=O` [Compound 15, N-((S)-1-carbamoyl-2-phenylethyl)-5-guanidino-(S)-2-(N′-(2-naphthalenesulfonyl)amino)pentanamide], for which the inhibition constant (Ki) in experiment [3] (setting [8]) is under 300 nM.
Regarding `N=C(N)NCCC[C@H](NS(=O)(=O)c1cccc(-c2ccccc2)c1)C(=O)N[C@@H](Cc1ccccc1)C(N)=O` [Compound 16, N-((S)-1-carbamoyl-2-phenylethyl)-5-guanidino-(S)-2-(N′-(3-phenylbenzenesulfonyl)amino)pentanamide], the inhibitory constant (Ki) in experiment [1] (setting [6]) is under 300 nM.
Consider `Cc1ccc(S(=O)(=O)NC(CCCNC(C)C)C(=O)NC2CCCc3ccccc32)c2ccccc12` [Compound 17, 5-N-isopropylamino-(S)-2-N′-(4-methyl-1-naphthalene-sulfonyl)amino-N″-(1,2,3,4-tetrahydro-1-naphthyl)-pentanamide], for which the inhibition constant Ki in experiment [2] is over 10000 nM; in experiment [4], over 10000 nM; in experiment [5] it was over 2000 nM; in experiment [1] (setting [7]) it was 84 ± 23 nM; in experiment [3] (membranes from CHO cells stably transfected with human SSTR1, 125I-LTT-sst-28, Cheng-Prusoff, read-out: Ki (SSTR1)), 1 ± 0.4 nM.
`Cc1ccc(S(=O)(=O)NC(CCN)C(=O)NC2CCCc3ccccc32)c2ccccc12` [Compound 18, 4-amino-(S)-2-N-(4-methyl-1-naphthalenesulfonyl)-amino-N′-(1,2,3,4-tetrahydro-1-naphthyl)butanamide]: in experiment [3] (setting [8]), the Ki is under 300 nM.
As for `Cc1ccc(S(=O)(=O)N[C@@H](CCCN)C(=O)NC2(C(N)=O)Cc3ccccc3C2)c2ccccc12` [Compound 19, 5-amino-N-(2-(2-carbamoyl)indanyl)-(S)-2-(N′-(4-methyl-1-naphthalenesulfonyl)amino)pentanamide], in experiment [1] (setting [6]), the Ki was under 300 nM.
`Cc1ccc(S(=O)(=O)N[C@@H](CCCN)C(=O)NCCc2c[nH]c3ccccc23)c2ccccc12` [Compound 20, 5-amino-N-(2-(1H-indol-3-yl)ethyl)-(S)-2-(N′-(4-methyl-1-naphthalenesulfonyl)amino)pentanamide]: in experiment [1] (setting [6]), the Ki is under 300 nM.
For `Cc1ccc(S(=O)(=O)N[C@@H](CCCN)C(=O)N[C@@H](Cc2cccc(Cl)c2)C(N)=O)c2ccccc12` [Compound 21, 5-amino-N-((S)-1-carbamoyl-2-(3-chlorophenyl)ethyl)-(S)-2-(N′-(4-methyl-1-naphthalenesulfonyl)amino)-pentanamide], in experiment [3] (setting [8]), the inhibitory constant (Ki) was under 300 nM.
Still for that read-out and setting: to `Cc1ccc(S(=O)(=O)NC(CCCN)C(=O)NC2(C(N)=O)CCc3ccccc3C2)c2ccccc12` [Compound 22, 5-amino-N-(2-(2-carbamoyl)-1,2,3,4-tetrahydronaphthyl)-(S)-2-(N′-(4-methyl-1-naphthalenesulfonyl)amino)-pentanamide] belongs under 300 nM; to `CNCC[C@H](NS(=O)(=O)c1ccc(C)c2ccccc12)C(=O)NCCc1cccc(Cl)c1` [Compound 23, N-(2-(3-chlorophenyl)ethyl)-4-N′-methylamino-(S)-2-(N″-(4-methyl-1-naphthalenesulfonyl)amino)-butanamide], under 300 nM.
